Data taken from the supplement of paper PMC11919725.

Experiments:
Jurkat [1] = test: confluency relative to DMSO, 18 h (ratio); higher = more viable
Procedure, shortened: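 Cells (Jurkat, or primary CD4+/CD8+ T cells either naive or stimulated 48 h with CD3/CD28 Dynabeads) were incubated with compound for 18 h at 37 °C, 5% CO2, across 1 nM–10 µM in log10 steps. Each 100 µl suspension was then placed in a 96-well plate with IncuCyte Cytotox Dye and alamarBlue and imaged by phase contrast at ×10, five images per well, hourly over 3 h. Confluency values come from the Basic Analyzer and are relative to the mean of the control wells.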

Jurkat [2] = test: cytotoxicity relative to DMSO, 18 h (ratio); higher = less cell death (drugs called cytotoxic fall below 1)
Procedure, shortened: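 Cytotoxicity was measured by IncuCyte fluorescence imaging after confluency correction and normalisation to mean control values. Cells (Jurkat, or primary CD4+/CD8+ T cells that were naive or pre-activated 48 h with CD3/CD28 Dynabeads) received compound at 1 nM–10 µM in log10 steps for 18 h at 37 °C, 5% CO2. Imaging used ×10 magnification, five images per well, taken hourly over 3 h in 96-well plates with 250 nM final IncuCyte Cytotox Dye in 100 µl of suspension.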

Jurkat [3] = test: metabolic activity relative to DMSO, 18 h (ratio); higher = more viable
Procedure, shortened: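 Compound was added at 1 nM–10 µM (log10 steps) for 18 h at 37 °C, 5% CO2 to Jurkat cells or to primary CD4+/CD8+ T cells that were naive or had been activated 48 h with CD3/CD28 Dynabeads. After alamarBlue was added to 10% v/v final, fluorescence (excitation 544 nm, emission 584 nm) was measured 3.5 h later. Values for metabolic activity are normalised to the mean of vehicle controls.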

SMILES | confluency (Jurkat [1]; 1 nM) | confluency (Jurkat [1]; 10 nM) | confluency (Jurkat [1]; 100 nM) | confluency (Jurkat [1]; 1000 nM) | confluency (Jurkat [1]; 10000 nM) | cytotoxicity (Jurkat [2]; 1 nM) | cytotoxicity (Jurkat [2]; 10 nM) | cytotoxicity (Jurkat [2]; 100 nM) | cytotoxicity (Jurkat [2]; 1000 nM) | cytotoxicity (Jurkat [2]; 10000 nM) | metabolic activity (Jurkat [3]; 1 nM) | metabolic activity (Jurkat [3]; 10 nM) | metabolic activity (Jurkat [3]; 100 nM) | metabolic activity (Jurkat [3]; 1000 nM) | metabolic activity (Jurkat [3]; 10000 nM)
CCNC(=O)Nc1ccc(-c2nc3c(c(N4CCOCC4C)n2)CCN(C2COC2)C3)cc1 (stereo not given) [GDC-0349] | 0.992 | 0.981 | 0.955 | 0.932 | 0.873 | 0.991 | 0.972 | 0.947 | 0.887 | 0.78 | 0.925 | 0.919 | 0.886 | 0.841 | 0.798
COC1=C2CC(C)CC(OC)C(O)C(C)C=C(C)C(OC(N)=O)C(OC)C=CC=C(C)C(=O)NC(=CC1=O)C2=O (stereo not given) [Geldanamycin] | 0.963 | 1.02 | 0.786 | 0.971 | 0.975 | 0.946 | 0.982 | 0.745 | 0.815 | 0.798 | 0.985 | 0.95 | 0.767 | 0.567 | 0.7
Nc1ccn(C2OC(CO)C(O)C2(F)F)c(=O)n1 (stereo not given) [Gemcitabine] | 0.916 | 0.993 | 1.04 | 0.732 | 0.69 | 0.927 | 1.01 | 0.921 | 0.651 | 0.602 | 1 | 1.07 | 0.61 | 0.712 | 0.724
CCN(CC)Cc1ccc2cc(COC(=O)Nc3ccc(C(=O)NO)cc3)ccc2c1 [Givinostat] | 1.05 | 0.98 | 1.05 | 1.18 | 1.2 | 1.15 | 1.01 | 1.06 | 1.03 | 1.04 | 0.902 | 0.981 | 0.969 | 0.845 | 0.762
COc1ccc(S(=O)(=O)N(C(C)=O)c2ccccc2C=Cc2cc[n+]([O-])cc2)cc1 [HMN-214] | 0.983 | 0.99 | 0.993 | 0.979 | 0.694 | 1.11 | 0.94 | 0.954 | 0.982 | 0.602 | 1.11 | 0.973 | 0.813 | 0.779 | 0.503
NC1CCC(NC2CC2c2ccccc2)CC1 (stereo not given) [Iadademstat] | 1.01 | 0.967 | 1.02 | 1.03 | 1.05 | 0.988 | 0.933 | 0.928 | 1.14 | 1.15 | 0.93 | 0.857 | 0.737 | 1.09 | 0.95
O=C1CCC(N2Cc3c(OCc4ccc(CN5CCOCC5)cc4)cccc3C2=O)C(=O)N1 (stereo not given) [Iberdomide] | 0.898 | 0.805 | 0.811 | 0.8 | 0.823 | 0.885 | 0.749 | 0.877 | 0.796 | 0.865 | 0.987 | 0.949 | 1.02 | 1.11 | 1.21
CCC(Nc1ncnc2nc[nH]c12)c1nc2cccc(F)c2c(=O)n1-c1ccccc1 (stereo not given) [Idelalisib] | 1.07 | 1.09 | 1.1 | 0.986 | 1.07 | 1.05 | 1.08 | 1.09 | 0.927 | 1 | 0.825 | 0.959 | 0.958 | 0.983 | 0.993
CC(C)CC(NC(=O)CNC(=O)c1cc(Cl)ccc1Cl)B(O)O (stereo not given) [Ixazomib] | 0.945 | 0.97 | 1.12 | 0.922 | 1.09 | 0.958 | 1 | 1.03 | 0.682 | 0.631 | 0.928 | 1.04 | 0.924 | 0.382 | 0.121
Cc1cc(C)cc(C(=O)NOCCCCCC(=O)NO)c1 [LMK235] | 0.982 | 1.03 | 1.06 | 1.16 | 1.3 | 0.947 | 0.991 | 1.08 | 1.04 | 1.26 | 0.997 | 0.979 | 1.04 | 0.905 | 0.694
Nc1cccc2c1CN(C1CCC(=O)NC1=O)C2=O (stereo not given) [Lenalidomide] | 0.996 | 0.912 | 0.993 | 0.96 | 0.93 | 0.945 | 0.905 | 0.96 | 0.912 | 0.892 | 0.931 | 0.895 | 0.809 | 0.905 | 0.96
COc1cc(C)[nH]c(=O)c1CNC(=O)c1c(C)n(C(C)C2CCN(CC(F)(F)F)CC2)c2ccccc12 (stereo not given) [Lirametostat] | 1.01 | 1.03 | 1.02 | 0.984 | 0.929 | 1 | 1 | 1.03 | 0.972 | 0.892 | 1.01 | 1.02 | 1.01 | 1.02 | 0.856
CC(C)CC(C=O)NC(=O)C(CC(C)C)NC(=O)C(CC(C)C)NC(=O)OCc1ccccc1 (stereo not given) [MG-132] | 1.01 | 0.99 | 1.02 | 0.605 | 0.69 | 0.953 | 0.939 | 0.989 | 0.471 | 0.461 | 0.799 | 0.84 | 0.938 | 0.359 | 0.11
O=C(O)C1(Cc2cccc(Nc3nccs3)n2)CCC(Oc2cccc(Cl)c2F)CC1 (stereo not given) [MK-5108] | 1.01 | 1.02 | 0.89 | 0.865 | 0.868 | 0.966 | 1.05 | 0.922 | 0.881 | 0.932 | 1.02 | 1.05 | 0.922 | 0.763 | 0.756
O=C(O)c1ccc(Nc2ncc3c(n2)-c2ccc(Cl)cc2C(c2c(F)cccc2F)=NC3)cc1 [MLN-8054] | 0.953 | 1.06 | 1.03 | 0.879 | 0.791 | 0.913 | 1.02 | 0.967 | 0.812 | 0.623 | 0.971 | 0.993 | 0.955 | 0.913 | 0.558
CN(Cc1cnc2nc(N)nc(N)c2n1)c1ccc(C(=O)NC(CCC(=O)O)C(=O)O)cc1 (stereo not given) [Methotrexate] | 0.943 | 0.828 | 0.619 | 0.576 | 0.603 | 1.05 | 0.897 | 0.666 | 0.571 | 0.585 | 1.12 | 1.08 | 1 | 0.865 | 0.746
CNC(=O)c1nn(C)c2c1C(C)(C)Cc1cnc(Nc3ccc(N4CCN(C)CC4)cc3)nc1-2 [Milciclib] | 1.01 | 0.985 | 1.01 | 0.969 | 1.01 | 0.986 | 0.958 | 0.956 | 0.794 | 0.897 | 1.05 | 0.965 | 0.953 | 0.684 | 0.809
Nc1ccccc1NC(=O)c1ccc(CNc2nccc(-c3cccnc3)n2)cc1 [Mocetinostat] | 1 | 1.02 | 1 | 0.76 | 0.886 | 0.997 | 1.01 | 0.975 | 0.726 | 0.636 | 0.892 | 0.841 | 0.822 | 0.747 | 0.3
CCNC(=O)CC1N=C(c2ccc(Cl)cc2)c2cc(OC)ccc2-n2c(C)nnc21 (stereo not given) [Molibresib] | 1.02 | 1.03 | 1.03 | 1 | 0.879 | 0.992 | 1 | 1.07 | 0.955 | 0.848 | 0.916 | 1.06 | 1.18 | 0.878 | 0.887
O=C1C=CC(=O)C2=C1C1c3ccccc3C2c2ccccc21 [NFAT activation inhibitor III] | 1 | 0.877 | 0.804 | 0.97 | 0.864 | 0.945 | 0.784 | 0.732 | 1.04 | 0.839 | 1.04 | 1.04 | 1.12 | 1.01 | 0.834
CCCCN(Cc1ccc(C(=O)NO)cc1)C(=O)Nc1ccccc1 [Nexturastat A] | 0.989 | 0.978 | 0.98 | 0.935 | 0.989 | 1.05 | 1.15 | 1.07 | 0.955 | 0.92 | 1.05 | 1.15 | 1.1 | 1.02 | 0.66
COC(=O)c1ccc2c(C(=Nc3ccc(N(C)C(=O)CN4CCN(C)CC4)cc3)c3ccccc3)c(O)[nH]c2c1 [Nintedanib] | 0.986 | 0.955 | 0.981 | 0.832 | 0.566 | 0.929 | 0.948 | 0.988 | 0.81 | 0.537 | 1.01 | 0.93 | 0.949 | 0.919 | 0.827
NC(=O)c1cccc2cn(-c3ccc(C4CCCNC4)cc3)nc12 (stereo not given) [Niraparib] | 1.07 | 1.04 | 1.06 | 1.05 | 0.915 | 1.11 | 1.01 | 1.1 | 1.03 | 0.94 | 0.947 | 0.907 | 1.17 | 0.992 | 1.01
COC(=O)Nc1nc2ccc(C(=O)c3cccs3)cc2[nH]1 [Nocodazole] | 1.02 | 1.06 | 1.14 | 0.907 | 0.731 | 1.03 | 1.08 | 1.02 | 0.807 | 0.59 | 0.881 | 1.08 | 0.621 | 0.589 | 0.554
COc1ccc(C2=NC(c3ccc(Cl)cc3)C(c3ccc(Cl)cc3)N2C(=O)N2CCNC(=O)C2)c(OC(C)C)c1 (stereo not given) [Nutlin-3] | 0.971 | 0.92 | 1.01 | 0.98 | 0.963 | 0.993 | 0.951 | 0.962 | 0.985 | 0.917 | 0.983 | 1.01 | 1.02 | 0.991 | 0.84
O=C(c1cc(Cc2n[nH]c(=O)c3ccccc23)ccc1F)N1CCN(C(=O)C2CC2)CC1 [Olaparib] | 0.954 | 1.02 | 0.974 | 0.975 | 0.969 | 0.942 | 1.03 | 1 | 1.01 | 0.977 | 1.08 | 1.09 | 0.911 | 0.899 | 1
COc1ncc(-c2ccc3nccc(-c4ccnnc4)c3c2)cc1NS(=O)(=O)c1ccc(F)cc1F [Omipalisib] | 0.98 | 0.797 | 0.785 | 0.904 | 1.12 | 1.04 | 0.823 | 0.728 | 0.735 | 0.923 | 1.1 | 0.966 | 0.621 | 0.524 | 0.563
Nc1nc2cc(CCC3CC(n4ccc5c(N)ncnc54)C(O)C3O)ccc2cc1Br (stereo not given) [Onametostat] | 0.916 | 0.951 | 0.973 | 0.978 | 0.985 | 0.949 | 0.883 | 0.975 | 0.884 | 0.982 | 1.01 | 0.982 | 1.07 | 0.979 | 0.975
COC1CCC(N2C(=O)CNc3ncc(-c4ccc(C(C)(C)O)nc4)nc32)CC1 (stereo not given) [Onatasertib] | 1.12 | 1.05 | 1.07 | 0.9 | 0.675 | 1.12 | 1.07 | 1.11 | 0.859 | 0.586 | 0.857 | 0.964 | 0.935 | 0.881 | 0.73
O=C(O)C(=O)O.[NH-]C1CCCCC1[NH-].[Pt+2] (stereo not given) [Oxaliplatin] | 0.84 | 0.755 | 1.01 | 0.989 | 0.969 | 0.835 | 0.765 | 1.05 | 1.04 | 1.1 | 0.909 | 0.865 | 0.936 | 0.884 | 0.991
